In US20060069132A1, “Azolecarboxamide herbicides” (priority 2004, published 2006):

Key:
woolly cupgrass = test: Test C pre-/postemergence herbicide test; assay type: in vivo, Eriochloa villosa; conditions: preemergence
Source text: (§1) Seeds of plant species selected from bermudagrass (Cynodon dactylon (L.) Pers.), Surinam grass (Urochloa decumbens (Staph) R. D. Webster, previously named Brachiaria decumbens Stapf), cocklebur (Xanthium strumarium L.), corn (Zea mays L.), large crabgrass (Digitaria sanguinalis (L.) Scop.), woolly cupgrass (Eriochloa villosa (Thunb.) Kunth), giant foxtail (Setaria faberi Herrm.), goosegrass (Eleusine indica (L.) Gaertn.), johnsongrass (Sorghum halepense (L.) Pers.), kochia (Kochia scoparia (L.) Schrad.), lambsquarters (Chenopodium album L.), morningglory (Ipomoea coccinea L.), eastern black nightshade (Solanum ptycanthum Dunal), yellow nutsedge (Cyperus esculentus L.), pigweed (Amaranthus retroflexus L.), common ragweed (Ambrosia elatior L.), soybean (Glycine max (L.) Merr.), common (oilseed) sunflower (Helianthus annuus L.) and velvetleaf (Abutilon theophrasti Medik.) were planted and treated preemergence with test chemicals formulated in a non-phytotoxic solvent mixture which included a surfactant.
(§2) At the same time, plants selected from these crop and weed species and also winter barley (Hordeum vulgare L.), blackgrass (Alopecurus myosuroides Huds.), canarygrass (Phalaris minor Retz.), chickweed (Stellaria media (L.) Vill.), downy bromegrass (Bromus tectorum L.), green foxtail (Setaria viridis (L.) Beauv.), Italian ryegrass (Lolium multiflorum Lam.), wheat (Triticum aestivum L.), wild oat (Avenafatua L.) and windgrass (Apera spica-venti (L.) Beauv.) were treated with postemergence applications of some of the test chemicals formulated in the same manner. Plants ranged in height from 2 to 18 cm (1- to 4-leaf stage) for postemergence treatments. Plant species in the flooded paddy test consisted of rice (Oryza sativa), smallflower umbrella sedge (Cyperus difformis L.), ducksalad (Heteranthera limosa (Sw.) Willd.) and barnyardgrass (Echinochloa crus-galli (L.) Beauv.) grown to the 2-leaf stage for testing. Treated plants and controls were maintained in a greenhouse for 12 to 14 days, after which time all species were compared to controls and visually evaluated. Plant response ratings, summarized in Table C, are based on a scale of 0 to 100 where 0 is no effect and 100 is complete control. A dash (-) response means no test result.

johnsongrass = test: Test C pre-/postemergence herbicide test; assay type: in vivo, Sorghum halepense; conditions: preemergence
Source text: as §1, §2

rice = test: Test C flooded paddy test; assay type: in vivo, Oryza sativa; conditions: for Plant response rating, Rice: 500 g ai/ha, visual rating after 12 to 14 days
Summary of the method: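 Plants were grown to the 1- to 4-leaf stage (2–18 cm) and then treated postemergence, or grown to the 2-leaf stage for the flooded paddy test. They were held in a greenhouse for 12 to 14 days and then scored by eye against controls, where 0 is no effect and 100 is complete control.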

corn = test: Test C pre-/postemergence herbicide test; assay type: in vivo, Zea mays; conditions: preemergence
Source text: as §1, §2

large crabgrass [1] = test: Test C pre-/postemergence herbicide test; assay type: in vivo, Digitaria sanguinalis; conditions: preemergence
Source text: as §1, §2

ducksalad = test: Test C flooded paddy test; assay type: in vivo, Heteranthera limosa; conditions: for Plant response rating, Ducksalad: 500 g ai/ha, visual rating after 12 to 14 days
large crabgrass [2] = test: Test A pre-/postemergence herbicide test; assay type: in vivo, Digitaria sanguinalis
Summary of the method: (§3)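 Visual injury rating on a 0–100 scale (0 no effect, 100 complete control) versus untreated controls, about ten days after treatment in greenhouse. Pre: directed soil spray onto seeded sandy loam. Post: spray to runoff on plants 2–10 cm tall at one- to two-leaf stage.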

giant foxtail = test: Test A pre-/postemergence herbicide test; assay type: in vivo, Setaria faberi
Summary of the method: as §3

barnyardgrass = test: Test A pre-/postemergence herbicide test; assay type: in vivo, Echinochloa crus-galli
Summary of the method: as §3

velvetleaf = test: Test A pre-/postemergence herbicide test; assay type: in vivo, Abutilon theophrasti
Summary of the method: as §3

kochia = test: Test C pre-/postemergence herbicide test; assay type: in vivo, Kochia scoparia; conditions: preemergence
Source text: as §1, §2

lambsquarters = test: Test C pre-/postemergence herbicide test; assay type: in vivo, Chenopodium album; conditions: preemergence
Source text: as §1, §2

[3] = 125 g ai/ha, scale 0 (no effect) to 100 (complete control), visual, 12 to 14 days
[4] = 500 g ai/ha, scale 0 to 100 (0 no effect, 100 complete control), visual, 12 to 14 days
[5] = 62 g ai/ha, scale 0 to 100 (0 no effect, 100 complete control)
[6] = 125 g ai/ha, scale 0 to 100 (0 no effect, 100 complete control)
[7] = 250 g ai/ha, scale of 0 to 100, 0 is no effect, 100 is complete control
[8] = scale 0 to 100 (0 no effect, 100 complete control)
[9] = Postemergence, 500 g ai/ha, 0 to 100 scale, 0 no effect, 100 complete control
[10] = Postemergence, 2000 g ai/ha, 0 to 100 scale, 0 no effect, 100 complete control
[11] = Preemergence, 2000 g ai/ha, visual rating, 0 to 100 scale (0 no effect, 100 complete control)
[12] = preemergence, 500 g ai/ha, visual injury, 0 to 100 scale (0 no effect, 100 complete control)

Structure (SMILES) | Plant response rating, Cupgrass, Woolly (woolly cupgrass; 62 g ai/ha, scale 0 to 100) | Plant response rating, Cupgrass, Woolly (woolly cupgrass; 250 g ai/ha, scale 0-100) | Plant response rating, Cupgrass, Woolly (woolly cupgrass; [4]) | Plant response rating, Johnsongrass (johnsongrass; 62 g ai/ha, scale 0 to 100) | Plant response rating, Johnsongrass (johnsongrass; 250 g ai/ha, scale 0-100) | Plant response rating, Johnsongrass (johnsongrass; [4]) | Rice plant response rating (rice; [6]) | Rice plant response rating (rice; [7]) | Plant response rating, Rice (rice; [8]) | Plant response rating, Corn (corn; 62 g ai/ha, scale 0 to 100) | Plant response rating, Corn (corn; 250 g ai/ha, scale 0-100) | Plant response rating, Corn (corn; [4]) | Plant response rating, Crabgrass, Large (large crabgrass [1]; 62 g ai/ha, scale 0 to 100) | Plant response rating, Crabgrass, Large (large crabgrass [1]; 250 g ai/ha, scale 0-100) | Plant response rating, Crabgrass, Large (large crabgrass [1]; [4]) | Ducksalad plant response rating (ducksalad; [6]) | Ducksalad plant response rating (ducksalad; [7]) | Plant response rating, Ducksalad (ducksalad; [8]) | further results
CCn1nc(C(C)(C)C)cc1C(=O)Nc1cc(C(=O)N2CCCC2)ccc1F [Compound 242] | 75 | 95 | 100 | 65 | 100 | 100 | 85 | 90 | 90 | 0 | 20 | 25 | 100 | 100 | 100 | 95 | 95 | 95 | Plant response rating, Cupgrass, Woolly (woolly cupgrass; [3]): 80; Plant response rating, Johnsongrass (johnsongrass; [3]): 95; Rice plant response rating (rice; [5]): 50; Plant response rating, Corn (corn; [3]): 0; Plant response rating, Crabgrass, Large (large crabgrass [1]; [3]): 100; Ducksalad plant response rating (ducksalad; [5]): 65
CCn1nc(C(C)(C)C)cc1C(=O)Nc1cccc(C(=O)N2CC=CC2)c1 [Compound 286] |  |  |  |  |  |  | 55 | 65 | 75 |  |  |  |  |  |  | 75 | 90 | 90 | Crabgrass, Large plant response rating (large crabgrass [2]; [9]): 20; Plant response rating, Crabgrass, Large (large crabgrass [2]; [10]): 25; Crabgrass, Large plant response rating (large crabgrass [2]; [11]): 70; Crabgrass, Large plant response rating (large crabgrass [2]; [12]): 15; Foxtail, Giant plant response rating (giant foxtail; [9]): 35; Plant response rating, Foxtail, Giant (giant foxtail; [10]): 75; Foxtail, Giant plant response rating (giant foxtail; [11]): 100; Foxtail, Giant plant response rating (giant foxtail; [12]): 60; Rice plant response rating (rice; 62 g ai/ha, scale 0 to 100): 45; Ducksalad plant response rating (ducksalad; 62 g ai/ha, scale 0 to 100): 50; Barnyardgrass plant response rating (barnyardgrass; [9]): 60; Plant response rating, Barnyardgrass (barnyardgrass; [10]): 80; Barnyardgrass plant response rating (barnyardgrass; [11]): 85; Barnyardgrass plant response rating (barnyardgrass; [12]): 75; Velvetleaf plant response rating (velvetleaf; [9]): 30; Plant response rating, Velvetleaf (velvetleaf; [10]): 50; Velvetleaf plant response rating (velvetleaf; [11]): 70; Velvetleaf plant response rating (velvetleaf; [12]): 20
CCN(CC)C(=O)c1cccc(NC(=O)c2nn(C(C)(C)C)nc2C)c1 [Compound 418] | 0 | 10 | 95 | 95 | 95 | 95 |  |  |  | 0 | 40 | 80 | 95 | 100 | 100 |  |  |  | Plant response rating (0 = no effect, 100 = complete control), Cupgrass, Woolly (woolly cupgrass; 125 g ai/ha): 0; Plant response rating (0 = no effect, 100 = complete control), Johnsongrass (johnsongrass; 125 g ai/ha): 95; Plant response rating, Kochia (kochia; 62 g ai/ha, scale 0 to 100): 65; Plant response rating (0 = no effect, 100 = complete control), Kochia (kochia; 125 g ai/ha): 80; Plant response rating, Kochia (kochia; 250 g ai/ha, scale 0-100): 85; Plant response rating, Kochia (kochia; [4]): 95; Plant response rating (0 = no effect, 100 = complete control), Corn (corn; 125 g ai/ha): 10; Plant response rating (0 = no effect, 100 = complete control), Crabgrass, Large (large crabgrass [1]; 125 g ai/ha): 100; Plant response rating, Lambsquarters (lambsquarters; 62 g ai/ha, scale 0 to 100): 95; Plant response rating (0 = no effect, 100 = complete control), Lambsquarters (lambsquarters; 125 g ai/ha): 100; Plant response rating, Lambsquarters (lambsquarters; 250 g ai/ha, scale 0-100): 100; Plant response rating, Lambsquarters (lambsquarters; [4]): 100
